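Assay format: 96-well plates, 48-hour exposure. GI50: concentration for 50% inhibition of growth.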 Calls of active or inactive are those of the source. Rule as the data show it: active = GI50 up to about 1.1 µM and inactive = higher.
What was measured:
Assay in all cases: NCI anticancer screen, dose series, 48 h
PC-3 = system: PC-3
COLO 205 = system: COLO 205
HL-60 = system: HL-60
SR = system: SR
UACC-62 = system: UACC-62
A498 = system: A498
EKVX = system: EKVX
UACC-257 = system: UACC-257
SNB-19 = system: SNB-19
CAKI-1 = system: CAKI-1
DU-145 = system: DU-145
NCI-H460 = system: NCI-H460
NCI-H522 = system: NCI-H522
TK-10 = system: TK-10
KM12 = system: KM12
HCT-116 = system: HCT-116
SK-MEL-5 = system: SK-MEL-5
OVCAR-4 = system: OVCAR-4
CCRF-CEM = system: CCRF-CEM
HCC 2998 = system: HCC 2998

Measured: GI50

NC(=O)C(c1ccccc1)N1OC2C(=O)N(c3cccc4ccccc34)C(=O)C2C1c1c2ccccc2c(Cl)c2ccccc12 (stereo unspecified)
inactive: PC-3 6.98 µM | COLO 205 7.85 µM | HL-60 2.44 µM | SR 1.21 µM | UACC-62 6.93 µM | A498 14.6 µM | EKVX 11.6 µM | UACC-257 5.18 µM | SNB-19 8.22 µM | CAKI-1 5.28 µM | DU-145 14.5 µM | NCI-H460 9.31 µM | NCI-H522 10.1 µM | TK-10 10.4 µM | KM12 1.59 µM | HCT-116 1.23 µM | SK-MEL-5 5.06 µM | OVCAR-4 9.93 µM

CCc1nnc(CC)n1-n1c(Cc2ccccc2)n[nH]c1=O
inactive: PC-3 > 100 µM | COLO 205 > 100 µM | SR > 100 µM | UACC-62 > 100 µM | CCRF-CEM > 100 µM | EKVX > 100 µM | UACC-257 > 100 µM | HCC 2998 > 100 µM | SNB-19 > 100 µM | DU-145 > 100 µM | NCI-H522 > 100 µM | TK-10 > 100 µM | KM12 > 100 µM | HCT-116 > 100 µM | SK-MEL-5 > 100 µM | OVCAR-4 > 100 µM

NC(CCC(=O)O)C(=O)NC(Cc1ccc(N(CCCl)CCCl)cc1)C(=O)O (stereo unspecified)
inactive: PC-3 > 100 µM | COLO 205 > 100 µM | HL-60 > 100 µM | UACC-62 > 100 µM | A498 > 100 µM | CCRF-CEM > 100 µM | EKVX > 100 µM | UACC-257 > 100 µM | HCC 2998 > 100 µM | SNB-19 > 100 µM | CAKI-1 81.8 µM | DU-145 > 100 µM | NCI-H460 > 100 µM | NCI-H522 > 100 µM | TK-10 > 100 µM | KM12 > 100 µM | HCT-116 > 100 µM | SK-MEL-5 > 100 µM | OVCAR-4 > 100 µM

CC1CCC2C(C)C(=O)OC2C2(C)C(=O)C=CC12 (stereo unspecified)
inactive: PC-3 > 10 µM | COLO 205 > 10 µM | HL-60 6.82 µM | SR 3.61 µM | UACC-62 > 10 µM | CCRF-CEM 3.92 µM | EKVX > 10 µM | UACC-257 > 10 µM | HCC 2998 > 10 µM | SNB-19 > 10 µM | CAKI-1 > 10 µM | DU-145 > 10 µM | NCI-H460 > 10 µM | NCI-H522 2.83 µM | TK-10 > 10 µM | KM12 > 10 µM | HCT-116 7.76 µM | SK-MEL-5 > 10 µM | OVCAR-4 > 10 µM

CC(C)=CCc1cc2c(cc1O)OC[C@H]1c3cc4c(cc3O[C@@H]21)OCO4
inactive: PC-3 23.3 µM | COLO 205 > 100 µM | HL-60 23.8 µM | SR 33.6 µM | UACC-62 > 100 µM | CCRF-CEM 26.4 µM | EKVX 22.2 µM | UACC-257 45.3 µM | HCC 2998 > 10 µM | SNB-19 66.1 µM | CAKI-1 25.1 µM | DU-145 38.8 µM | NCI-H460 21.2 µM | NCI-H522 32.6 µM | TK-10 39.8 µM | KM12 39.6 µM | HCT-116 17.1 µM | SK-MEL-5 20.3 µM | OVCAR-4 37.4 µM

O=C1Oc2cc(O)cc(/C=C/c3ccc(O)cc3)c2[C@@]12c1c(O)cc(O)cc1OC2c1cccc(O)c1 (stereo partly specified)
inactive: PC-3 30.9 µM | COLO 205 26 µM | HL-60 28.9 µM | SR 42.4 µM | UACC-62 25.3 µM | CCRF-CEM 22 µM | EKVX 49.3 µM | UACC-257 15.2 µM | HCC 2998 19.5 µM | SNB-19 30.7 µM | CAKI-1 83.8 µM | DU-145 39 µM | NCI-H460 20.9 µM | TK-10 39.1 µM | KM12 25.6 µM | HCT-116 29 µM | SK-MEL-5 12.5 µM | OVCAR-4 56.2 µM

CCOC(=O)Cc1cc(=O)oc2cc(O)ccc12
inactive: PC-3 > 100 µM | COLO 205 > 100 µM | HL-60 > 100 µM | SR > 100 µM | UACC-62 > 100 µM | A498 > 100 µM | CCRF-CEM > 100 µM | EKVX > 100 µM | UACC-257 > 100 µM | SNB-19 > 100 µM | CAKI-1 > 100 µM | DU-145 > 100 µM | NCI-H460 > 100 µM | NCI-H522 > 100 µM | TK-10 > 100 µM | KM12 > 100 µM | HCT-116 > 100 µM | SK-MEL-5 > 100 µM

CCOC(=O)c1c(-c2ccc(OC)cc2)c(C#N)c(=S)n(C2OC(CO)C(O)C(O)C2O)c1-c1ccccc1 (stereo unspecified)
inactive: PC-3 35.6 µM | COLO 205 49.3 µM | HL-60 40.8 µM | SR 54.7 µM | UACC-62 28.2 µM | CCRF-CEM 31.2 µM | UACC-257 > 100 µM | HCC 2998 39.6 µM | SNB-19 85.1 µM | CAKI-1 50.7 µM | DU-145 48.4 µM | NCI-H460 42.7 µM | TK-10 55.6 µM | KM12 51.2 µM | HCT-116 27.2 µM | SK-MEL-5 13.3 µM | OVCAR-4 34.3 µM

CCOP(=O)(OCC)C(C)(CC)N/C(=N\C1=NC(C(F)(F)F)(C(F)(F)F)N=C(C(F)(F)F)O1)NC(NC(C)=O)(C(F)(F)F)C(F)(F)F (stereo unspecified)
inactive: PC-3 21.2 µM | COLO 205 16.1 µM | HL-60 17.8 µM | UACC-62 35.3 µM | A498 38.9 µM | CCRF-CEM 15.8 µM | EKVX 30.8 µM | UACC-257 31.8 µM | HCC 2998 34 µM | SNB-19 60.4 µM | CAKI-1 42 µM | DU-145 81.5 µM | NCI-H460 35.3 µM | NCI-H522 27 µM | TK-10 46.9 µM | KM12 35 µM | HCT-116 33.3 µM | SK-MEL-5 14.1 µM | OVCAR-4 16.5 µM

COC(=O)[C@@H](OC(C)=O)[C@@H](OC(C)=O)c1nnc2ccc(Cl)nn12
inactive: PC-3 > 100 µM | COLO 205 > 100 µM | HL-60 > 100 µM | UACC-62 > 100 µM | A498 > 100 µM | CCRF-CEM > 100 µM | EKVX > 100 µM | UACC-257 87.9 µM | HCC 2998 36.2 µM | SNB-19 > 100 µM | CAKI-1 92 µM | DU-145 > 100 µM | NCI-H460 > 100 µM | NCI-H522 22.2 µM | TK-10 > 100 µM | KM12 > 100 µM | HCT-116 > 100 µM | SK-MEL-5 > 100 µM | OVCAR-4 > 100 µM

O=C1/C(=C/c2cccc(Oc3ccccc3)c2)N=C(c2ccccc2)N1c1nc2ccc(Sc3ccccc3)cc2[nH]1
inactive: PC-3 29.9 µM | COLO 205 16.9 µM | HL-60 20.4 µM | UACC-62 23.2 µM | A498 26.1 µM | CCRF-CEM 24.6 µM | EKVX 44.1 µM | UACC-257 29.4 µM | HCC 2998 13.3 µM | SNB-19 35.5 µM | CAKI-1 36.2 µM | DU-145 27.3 µM | NCI-H460 23 µM | NCI-H522 25.2 µM | TK-10 25.2 µM | KM12 29.6 µM | HCT-116 30.2 µM | SK-MEL-5 24.4 µM | OVCAR-4 47.3 µM

Reference: ChEMBL document CHEMBL1201862, “PubChem BioAssay data set” (2004)
